Target: T1, recombinant human MetAP2 (Homo sapiens, UniProt P50579)
T1 construct: Flag; made in house; host or cells: Sf9 insect cells
Assay: Inhibition of recombinant human MetAP2 activity (Amplex red fluorescence assay)
Format: biochemical
Details: manganese enzyme, 0.75 mM Methionine-Alanine-Serine (MAS) substrate, 30 minutes at 25° C., pH 7.5, 1% DMSO
Description: Compounds are tested for their capacity to inhibit recombinant human MetAP2 activity using the following assay.
Human recombinant Flag-MetAP2 expressed in Sf9 cells followed by affinity purification and EDTA treatment to remove endogenous active site cation is dialysed against MnCl2 to produce the manganese enzyme used in the assay. The assay is carried out for 30 minutes at 25° C. in 50 mM HEPES buffer containing 100 mM NaCl, pH 7.5 the presence of 0.75 mM Methionine-Alanine-Serine (MAS) substrate and […] amino acid oxidase using a dilution of purified MetAP2 giving approximately 50,000 RFU control activity. Cleavage of the substrate by MetAP2 and oxidation of free methionine by amino acid oxidase is detected and quantified using fluorescence generated by Amplex red (10-acetyl-3,7-dihydroxyphenoxazine) in combination with horseradish peroxidase which detects H2O2 released during the oxidation step. The fluorescent signal is detected using a multiwell fluorimeter. Compounds are diluted in DMSO prior to addition to assay buffer, the final DMSO concentration in the assay being 1%.
The IC50 is defined as the concentration at which a given compound achieves 50% inhibition of control. IC50 values are calculated using the XLfit software package (version 2.0.5).

T1 sequence (P50579 whole entry): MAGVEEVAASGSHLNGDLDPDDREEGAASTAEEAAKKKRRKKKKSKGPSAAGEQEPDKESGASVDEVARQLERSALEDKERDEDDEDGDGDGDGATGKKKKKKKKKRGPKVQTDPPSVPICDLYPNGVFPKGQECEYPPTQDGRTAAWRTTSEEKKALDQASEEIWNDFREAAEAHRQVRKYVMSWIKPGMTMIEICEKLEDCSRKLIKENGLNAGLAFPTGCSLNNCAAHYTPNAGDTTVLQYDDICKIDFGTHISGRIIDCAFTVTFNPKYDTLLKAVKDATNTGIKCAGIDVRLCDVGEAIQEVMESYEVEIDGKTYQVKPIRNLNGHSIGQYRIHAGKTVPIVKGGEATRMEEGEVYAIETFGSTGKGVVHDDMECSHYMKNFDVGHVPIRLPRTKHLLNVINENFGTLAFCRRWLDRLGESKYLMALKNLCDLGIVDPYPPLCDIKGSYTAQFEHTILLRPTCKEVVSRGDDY

Structure (SMILES)	IC50
O=C(O)c1cc(C2CCOCC2)sc1NS(=O)(=O)c1ccccc1 [2-Benzenesulphonylamino-5-(tetrahydropyran-4-yl)thiophene-3-carboxylic acid]	> 2000 nM
Cc1ccccc1S(=O)(=O)Nc1sc2c(c1C(=O)O)CCCC2 [2-(2-Methylbenzenesulphonylamino)-4,5,6,7-tetrahydrobenzo[b]thiophen-3-carboxylic acid]	< 200 nM
Cc1c(-c2ccoc2)sc(NS(=O)(=O)c2ccccc2)c1C(=O)O [2-Benzenesulphonylamino-5-(furan-3-yl)-4-methylthiophene-3-carboxylic acid]	200 to 2000 nM
O=C(O)c1c(NS(=O)(=O)c2ccccc2)sc2c1COCC2 [2-Benzenesulphonylamino-6,7-dihydro-4H-thieno[3,2-c]pyran-3-carboxylic acid]	200 to 2000 nM
O=C(O)c1c(NS(=O)(=O)c2ccccc2)sc2c1CCC2 [2-Benzenesulphonylamino-5,6-dihydro-4H-cyclopenta[b]thiophene-3-carboxylic acid]	200 to 2000 nM
O=C(O)c1c(NS(=O)(=O)c2ccccc2)sc2c1CCCC2 [2-Benzenesulphonylamino-4,5,6,7-tetrahydrobenzo[b]thiophene-3-carboxylic acid]	< 200 nM
CC1CCc2c(sc(NS(=O)(=O)c3ccccc3)c2C(=O)O)C1 (stereo not shown) [2-Benzenesulphonylamino-6-methyl-4,5,6,7-tetrahydrobenzo[b]thiophene-3-carboxylic acid]	< 200 nM
Cc1cc(F)ccc1S(=O)(=O)Nc1sc2c(c1C(=O)O)CCCC2 [2-(4-Fluoro-2-methylbenzenesulphonylamino)-4,5,6,7-tetrahydrobenzo[b]thiophene-3-carboxylic acid]	200 to 2000 nM
O=C(O)c1c(NS(=O)(=O)c2ccccc2F)sc2c1CCCC2 [2-(2-Fluorobenzenesulphonylamino)-4,5,6,7-tetrahydrobenzo[b]thiophene-3-carboxylic acid]	200 to 2000 nM
Cn1c2c(c(C(=O)O)c1NS(=O)(=O)c1ccccc1)CCCC2 [2-Benzenesulphonylamino-1-methyl-4,5,6,7-tetrahydro-1H-indole-3-carboxylic acid]	200 to 2000 nM
CCc1sc(NS(=O)(=O)c2ccccc2)c(C(=O)O)c1C(C)C [2-Benzenesulphonylamino-5-ethyl-4-isopropylthiophene-3-carboxylic acid]	200 to 2000 nM
CCc1ccccc1S(=O)(=O)Nc1sc2c(c1C(=O)O)CCCC2 [2-(2-Ethylbenzenesulphonylamino)-4,5,6,7-tetrahydrobenzo[b]thiophene-3-carboxylic acid]	< 200 nM
COc1cccc(S(=O)(=O)Nc2sc3c(c2C(=O)O)CCCC3)c1 [2-(3-Methoxybenzenensulphonylamino)-4,5,6,7-tetrahydrobenzo[b]thiophene-3-carboxylic acid]	200 to 2000 nM
Cc1c(-c2ccccc2)sc(NS(=O)(=O)c2ccccc2)c1C(=O)O [2-Benzenesulphonylamino-4-methyl-5-phenylthiophene-3-carboxylic acid]	> 2000 nM
O=C(O)c1c(NS(=O)(=O)c2ccccc2Cl)sc2c1CCCC2 [2-(2-Chlorobenzenesulphonylamino)-4,5,6,7-tetrahydrobenzo[b]thiophene-3-carboxylic acid]	200 to 2000 nM
O=C(O)c1c(NS(=O)(=O)c2ccccc2)sc2ccccc12 [2-Benzenesulphonylaminobenzo[b]thiophene-3-carboxylic acid]	> 2000 nM

Structure (SMILES)	IC50
O=C(O)c1c(NS(=O)(=O)c2ccccc2)sc2c1CCOC2 [2-Benzenesulphonylamino-4,7-dihydro-5H-thieno[2,3-c]pyran-3-carboxylic acid]	200 to 2000 nM
CC1(C)CCc2c(sc(NS(=O)(=O)c3ccccc3)c2C(=O)O)C1 [2-Benzenesulphonylamino-6,6-dimethyl-4,5,6,7-tetrahydrobenzo[b]thiophene-3-carboxylic acid]	200 to 2000 nM
CCc1sc(NS(=O)(=O)c2ccccc2)c(C(=O)O)c1C [2-Benzenesulphonylamino-5-ethyl-4-methylthiophene-3-carboxylic acid]	200 to 2000 nM
O=C(O)c1c(NS(=O)(=O)c2ccc(F)cc2)sc2c1CCCC2 [2-(4-Fluorobenzenesulphonylamino)-4,5,6,7-tetrahydrobenzo[b]thiophene-3-carboxylic acid]	< 200 nM
CC1(C)CCc2sc(NS(=O)(=O)c3ccccc3)c(C(=O)O)c2C1 [2-Benzenesulphonylamino-5,5-dimethyl-4,5,6,7-tetrahydrobenzo[b]thiophene-3-carboxylic acid]	200 to 2000 nM
O=C(O)c1c(NS(=O)(=O)c2ccccc2C(F)(F)F)sc2c1CCCC2 [2-(2-Trifluoromethylbenzenesulphonylamino)-4,5,6,7-tetrahydrobenzo[b]thiophene-3-carboxylic acid]	200 to 2000 nM
O=C(O)c1cc(-c2ccccc2)sc1NS(=O)(=O)c1ccccc1 [2-Benzenesulphonylamino-5-phenylthiophene-3-carboxylic acid]	> 2000 nM
O=C(O)c1c(NS(=O)(=O)c2cccc(Cl)c2)sc2c1CCCC2 [2-(3-Chlorobenzenesulphonylamino)-4,5,6,7-tetrahydrobenzo[[b]thiophene-3-carboxylic acid]	200 to 2000 nM
COc1ccccc1S(=O)(=O)Nc1sc2c(c1C(=O)O)CCCC2 [2-(2-Methoxybenzenesulphonylamino)-4,5,6,7-tetrahydrobenzo[b]thiophene-3-carboxylic acid]	< 200 nM
CC1CCc2sc(NS(=O)(=O)c3ccccc3)c(C(=O)O)c2C1 (stereo not shown) [2-Benzenensulphonylamino-5-methyl-4,5,6,7-tetrahydrobenzo[b]thiophene-3-carboxylic acid]	200 to 2000 nM
CCN(CC)C/C=C\c1ccccc1S(=O)(=O)Nc1sc2c(c1C(=O)O)CCCC2 [2-[2-((Z)-3-Diethylaminoprop-1-enyl)benzenesulphonylamino]-4,5,6,7-tetrahydrobenzo[b]thiophene-3-carboxylic acid]	200 to 2000 nM
O=C(O)c1c(NS(=O)(=O)Cc2ccccc2)sc2c1CCCC2 [2-Phenylmethanesulphonylamino-4,5,6,7-tetrahydrobenzo[b]thiophene-3-carboxylic acid]	200 to 2000 nM
O=C(O)c1c(NS(=O)(=O)C2CCCCC2)sc2c1CCCC2 [2-(Cyclohexanesulphonylamino)-4,5,6,7-tetrahydrobenzo[b]thiophene-3-carboxylic acid]	200 to 2000 nM
O=C(O)c1c(NS(=O)(=O)c2ccccc2)sc2c1CCCO2	< 200 nM
O=C(O)c1c(NS(=O)(=O)c2ccc(Cl)cc2)sc2c1CCCC2 [2-(4-Chlorobenzenesulphonylamino)-4,5,6,7-tetrahydrobenzo[b]thiophene-3-carboxylic acid]	200 to 2000 nM

Reference: patent publication US9221787B2, “Sulphonamine compounds and methods of making and using same” (Zafgen, Inc., priority 2010, dated 2015)
